Assay results reported in ChEMBL document CHEMBL1201862, “PubChem BioAssay data set” (2004).
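Cultured in 96-well plates, cells were exposed to test compound for 48 hours across five concentrations. Here, GI50 denotes the concentration required for 50% inhibition of growth.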 Calls of active or inactive are those of the source. No stated cut-off is given here; in the data, active = GI50 up to about 1.1 µM and inactive = higher.

Columns and labels:
Assay in all cases: NCI tumour cell line growth inhibition, 48 h
ACHN = system: ACHN
CAKI-1 = system: CAKI-1
CCRF-CEM = system: CCRF-CEM
COLO 205 = system: COLO 205
DMS-114 = system: DMS-114
DMS-273 = system: DMS-273
EKVX = system: EKVX
HCC 2998 = system: HCC 2998
HCT-116 = system: HCT-116
HCT-15 = system: HCT-15
HL-60 = system: HL-60
HOP-62 = system: HOP-62
HOP-92 = system: HOP-92
IGROV-1 = system: IGROV-1
K562 = system: K562
KM12 = system: KM12
LOX IMVI = system: LOX IMVI
LXFL 529 = system: LXFL 529
M14 = system: M14
M19-MEL = system: M19-MEL
MOLT-4 = system: MOLT-4
Malme-3M = system: Malme-3M
NCI-H522 = system: NCI-H522
OVCAR-3 = system: OVCAR-3
OVCAR-4 = system: OVCAR-4
RPMI-8226 = system: RPMI-8226
SF-268 = system: SF-268
SK-MEL-2 = system: SK-MEL-2
SK-OV-3 = system: SK-OV-3
SN12C = system: SN12C
SNB-75 = system: SNB-75
SR = system: SR
SW-620 = system: SW-620
UACC-62 = system: UACC-62
XF498 = system: XF498
786-0 = system: 786-0
A549 = system: A549
DLD-1 = system: DLD-1
HT-29 = system: HT-29
NCI-H226 = system: NCI-H226
NCI-H23 = system: NCI-H23
NCI-H460 = system: NCI-H460
OVCAR-5 = system: OVCAR-5
OVCAR-8 = system: OVCAR-8
SF-295 = system: SF-295
SF-539 = system: SF-539
SK-MEL-5 = system: SK-MEL-5
SNB-78 = system: SNB-78
U-251 = system: U-251
UO-31 = system: UO-31
A498 = system: A498
SK-MEL-28 = system: SK-MEL-28
KM-20L2 = system: KM-20L2
RXF 393 = system: RXF 393
SNB-19 = system: SNB-19
TK-10 = system: TK-10
UACC-257 = system: UACC-257

Compound: O=c1n(CC2CS2)c2ccccc2n1CC1CS1 (stereo unspecified)
- GI50 (ACHN): 45.7 µM (inactive)
- GI50 (CAKI-1): 42.9 µM (inactive)
- GI50 (CCRF-CEM): 21 µM (inactive)
- GI50 (COLO 205): 62.4 µM (inactive)
- GI50 (DMS-114): 30.5 µM (inactive)
- GI50 (DMS-273): 31.9 µM (inactive)
- GI50 (EKVX): > 100 µM (inactive)
- GI50 (HCC 2998): 82.8 µM (inactive)
- GI50 (HCT-116): 25.1 µM (inactive)
- GI50 (HCT-15): 42.7 µM
- GI50 (HL-60): 39.2 µM (inactive)
- GI50 (HOP-62): 39.5 µM (inactive)
- GI50 (HOP-92): 42.3 µM (inactive)
- GI50 (IGROV-1): 39.2 µM (inactive)
- GI50 (K562): 33.8 µM (inactive)
- GI50 (KM12): 35.3 µM (inactive)
- GI50 (LOX IMVI): 30.2 µM (inactive)
- GI50 (LXFL 529): 31.2 µM (inactive)
- GI50 (M14): 35.2 µM (inactive)
- GI50 (M19-MEL): 42.8 µM (inactive)
- GI50 (MOLT-4): 18.8 µM (inactive)
- GI50 (Malme-3M): 18.2 µM (inactive)
- GI50 (NCI-H522): 30.8 µM (inactive)
- GI50 (OVCAR-3): 43.8 µM (inactive)
- GI50 (OVCAR-4): 41.7 µM (inactive)
- GI50 (RPMI-8226): 27.2 µM (inactive)
- GI50 (SF-268): 57.7 µM (inactive)
- GI50 (SK-MEL-2): 28.9 µM (inactive)
- GI50 (SK-OV-3): > 100 µM (inactive)
- GI50 (SN12C): 87.7 µM (inactive)
- GI50 (SNB-75): 65.3 µM (inactive)
- GI50 (SR): 45.5 µM (inactive)
- GI50 (SW-620): > 10 µM (inactive)
- GI50 (UACC-62): 33.3 µM (inactive)
- GI50 (XF498): > 100 µM (inactive)

Compound: CC1CC2C(=O)NC(=O)C2c2[nH]c3ccccc3c21 (stereo unspecified)
- GI50 (786-0): > 100 µM (inactive)
- GI50 (A549): > 100 µM (inactive)
- GI50 (ACHN): > 100 µM (inactive)
- GI50 (CAKI-1): 42.8 µM (inactive)
- GI50 (CCRF-CEM): > 100 µM (inactive)
- GI50 (COLO 205): > 100 µM (inactive)
- GI50 (DLD-1): > 100 µM (inactive)
- GI50 (DMS-114): 96.2 µM (inactive)
- GI50 (DMS-273): > 100 µM (inactive)
- GI50 (EKVX): > 100 µM (inactive)
- GI50 (HCT-116): > 100 µM (inactive)
- GI50 (HCT-15): > 100 µM
- GI50 (HL-60): 40.6 µM (inactive)
- GI50 (HOP-62): 74 µM (inactive)
- GI50 (HOP-92): 34.4 µM (inactive)
- GI50 (HT-29): > 100 µM (inactive)
- GI50 (IGROV-1): > 100 µM (inactive)
- GI50 (K562): 91.2 µM (inactive)
- GI50 (KM12): > 100 µM (inactive)
- GI50 (LOX IMVI): > 100 µM (inactive)
- GI50 (LXFL 529): > 100 µM (inactive)
- GI50 (M14): > 100 µM (inactive)
- GI50 (M19-MEL): > 100 µM (inactive)
- GI50 (MOLT-4): > 100 µM (inactive)
- GI50 (Malme-3M): > 100 µM (inactive)
- GI50 (NCI-H226): 67.1 µM (inactive)
- GI50 (NCI-H23): > 100 µM (inactive)
- GI50 (NCI-H460): > 100 µM (inactive)
- GI50 (NCI-H522): 51.4 µM (inactive)
- GI50 (OVCAR-3): 96.2 µM (inactive)
- GI50 (OVCAR-4): 92.7 µM (inactive)
- GI50 (OVCAR-5): > 100 µM (inactive)
- GI50 (OVCAR-8): > 100 µM (inactive)
- GI50 (RPMI-8226): > 100 µM (inactive)
- GI50 (SF-268): > 100 µM (inactive)
- GI50 (SF-295): > 100 µM (inactive)
- GI50 (SF-539): > 100 µM (inactive)
- GI50 (SK-MEL-2): > 100 µM (inactive)
- GI50 (SK-MEL-5): 70 µM (inactive)
- GI50 (SK-OV-3): > 100 µM (inactive)
- GI50 (SN12C): 78.7 µM (inactive)
- GI50 (SNB-75): 1.53 µM (inactive)
- GI50 (SNB-78): > 100 µM (inactive)
- GI50 (SR): > 100 µM (inactive)
- GI50 (SW-620): > 100 µM (inactive)
- GI50 (U-251): > 100 µM (inactive)
- GI50 (UO-31): 71.4 µM (inactive)
- GI50 (XF498): > 100 µM (inactive)

Compound: CCOc1ccc(NC(=O)c2c(N/N=C/c3ccc(OC)cc3)nc(=O)[nH]c2C)cc1
- GI50 (786-0): 52.2 µM (inactive)
- GI50 (A498): 18.4 µM (inactive)
- GI50 (ACHN): 60 µM (inactive)
- GI50 (CAKI-1): 44.5 µM (inactive)
- GI50 (CCRF-CEM): > 100 µM (inactive)
- GI50 (COLO 205): > 100 µM (inactive)
- GI50 (DLD-1): 63.5 µM (inactive)
- GI50 (DMS-273): 33.7 µM (inactive)
- GI50 (HCC 2998): > 100 µM (inactive)
- GI50 (HCT-116): 38.6 µM (inactive)
- GI50 (HCT-15): > 100 µM
- GI50 (HL-60): > 100 µM (inactive)
- GI50 (HOP-62): 38.5 µM (inactive)
- GI50 (HOP-92): 46.2 µM (inactive)
- GI50 (IGROV-1): 51.5 µM (inactive)
- GI50 (K562): > 100 µM (inactive)
- GI50 (LXFL 529): > 100 µM (inactive)
- GI50 (M14): 45.4 µM (inactive)
- GI50 (M19-MEL): 85.5 µM (inactive)
- GI50 (MOLT-4): > 100 µM (inactive)
- GI50 (Malme-3M): 97.9 µM (inactive)
- GI50 (NCI-H226): 41.6 µM (inactive)
- GI50 (NCI-H23): 65.8 µM (inactive)
- GI50 (NCI-H460): 56.4 µM (inactive)
- GI50 (NCI-H522): 22.9 µM (inactive)
- GI50 (OVCAR-4): 34.7 µM (inactive)
- GI50 (RPMI-8226): > 100 µM (inactive)
- GI50 (SF-268): > 100 µM (inactive)
- GI50 (SF-539): 37 µM (inactive)
- GI50 (SK-MEL-28): > 100 µM (inactive)
- GI50 (SK-MEL-2): 84.5 µM (inactive)
- GI50 (SK-OV-3): 33.6 µM (inactive)
- GI50 (SN12C): 76 µM (inactive)
- GI50 (SNB-75): 37.8 µM (inactive)
- GI50 (SNB-78): 57.8 µM (inactive)
- GI50 (SR): > 100 µM (inactive)
- GI50 (UACC-62): > 100 µM (inactive)
- GI50 (UO-31): 49.4 µM (inactive)
- GI50 (XF498): > 100 µM (inactive)

Compound: CCOC(=O)C(C)NC(=O)NC12CC3CC(CC(F)(C3)C1)C2 (stereo unspecified)
- GI50 (786-0): > 100 µM (inactive)
- GI50 (A498): > 100 µM (inactive)
- GI50 (A549): > 100 µM (inactive)
- GI50 (ACHN): > 100 µM (inactive)
- GI50 (CCRF-CEM): 76.7 µM (inactive)
- GI50 (COLO 205): 41.7 µM (inactive)
- GI50 (DLD-1): > 100 µM (inactive)
- GI50 (DMS-114): > 100 µM (inactive)
- GI50 (DMS-273): > 100 µM (inactive)
- GI50 (EKVX): > 100 µM (inactive)
- GI50 (HCC 2998): 31.8 µM (inactive)
- GI50 (HCT-116): > 100 µM (inactive)
- GI50 (HL-60): 61.5 µM (inactive)
- GI50 (HOP-62): > 100 µM (inactive)
- GI50 (HOP-92): 11.5 µM (inactive)
- GI50 (HT-29): > 100 µM (inactive)
- GI50 (IGROV-1): > 100 µM (inactive)
- GI50 (K562): > 100 µM (inactive)
- GI50 (KM-20L2): > 100 µM (inactive)
- GI50 (KM12): > 100 µM (inactive)
- GI50 (LOX IMVI): > 100 µM (inactive)
- GI50 (LXFL 529): > 100 µM (inactive)
- GI50 (M14): 63.8 µM (inactive)
- GI50 (M19-MEL): 61.1 µM (inactive)
- GI50 (MOLT-4): 62.1 µM (inactive)
- GI50 (Malme-3M): 63 µM (inactive)
- GI50 (NCI-H23): > 100 µM (inactive)
- GI50 (NCI-H460): > 100 µM (inactive)
- GI50 (NCI-H522): 65.2 µM (inactive)
- GI50 (OVCAR-3): 42 µM (inactive)
- GI50 (OVCAR-5): > 100 µM (inactive)
- GI50 (OVCAR-8): > 100 µM (inactive)
- GI50 (RPMI-8226): 88.3 µM (inactive)
- GI50 (RXF 393): 27.5 µM (inactive)
- GI50 (SF-539): > 100 µM (inactive)
- GI50 (SK-MEL-28): > 100 µM (inactive)
- GI50 (SK-MEL-2): > 100 µM (inactive)
- GI50 (SK-MEL-5): 46 µM (inactive)
- GI50 (SK-OV-3): > 100 µM (inactive)
- GI50 (SNB-19): > 100 µM (inactive)
- GI50 (SNB-75): 65.3 µM (inactive)
- GI50 (SNB-78): 27.9 µM (inactive)
- GI50 (SW-620): > 100 µM (inactive)
- GI50 (TK-10): > 100 µM (inactive)
- GI50 (U-251): > 100 µM (inactive)
- GI50 (UACC-257): 70.1 µM (inactive)
- GI50 (UACC-62): > 100 µM (inactive)
- GI50 (UO-31): 40.2 µM (inactive)
- GI50 (XF498): 27.4 µM (inactive)
